Results published in patent publication US20240336574A1 (LATIGO BIOTHERAPEUTICS, INC., priority 2021, published 2024).
pIC50: −log10 of the molar value. Read-outs that look alike come from different tables or passages of the source.

Columns and labels:
Format in all cases: cell-based
human NaV1.8 [1] = target: T1, human NaV1.8 (Homo sapiens, UniProt Q9Y5Y9); assay: Human NaV1.8 cell line SyncroPatch384PE automated patch clamp assay; design: expressed in transfected cells; host or cells: HEK cells, stably transfected; details: resting state block (P1 measurement), recombinant human NaV1.8 cells
T1 sequence (Q9Y5Y9 whole entry): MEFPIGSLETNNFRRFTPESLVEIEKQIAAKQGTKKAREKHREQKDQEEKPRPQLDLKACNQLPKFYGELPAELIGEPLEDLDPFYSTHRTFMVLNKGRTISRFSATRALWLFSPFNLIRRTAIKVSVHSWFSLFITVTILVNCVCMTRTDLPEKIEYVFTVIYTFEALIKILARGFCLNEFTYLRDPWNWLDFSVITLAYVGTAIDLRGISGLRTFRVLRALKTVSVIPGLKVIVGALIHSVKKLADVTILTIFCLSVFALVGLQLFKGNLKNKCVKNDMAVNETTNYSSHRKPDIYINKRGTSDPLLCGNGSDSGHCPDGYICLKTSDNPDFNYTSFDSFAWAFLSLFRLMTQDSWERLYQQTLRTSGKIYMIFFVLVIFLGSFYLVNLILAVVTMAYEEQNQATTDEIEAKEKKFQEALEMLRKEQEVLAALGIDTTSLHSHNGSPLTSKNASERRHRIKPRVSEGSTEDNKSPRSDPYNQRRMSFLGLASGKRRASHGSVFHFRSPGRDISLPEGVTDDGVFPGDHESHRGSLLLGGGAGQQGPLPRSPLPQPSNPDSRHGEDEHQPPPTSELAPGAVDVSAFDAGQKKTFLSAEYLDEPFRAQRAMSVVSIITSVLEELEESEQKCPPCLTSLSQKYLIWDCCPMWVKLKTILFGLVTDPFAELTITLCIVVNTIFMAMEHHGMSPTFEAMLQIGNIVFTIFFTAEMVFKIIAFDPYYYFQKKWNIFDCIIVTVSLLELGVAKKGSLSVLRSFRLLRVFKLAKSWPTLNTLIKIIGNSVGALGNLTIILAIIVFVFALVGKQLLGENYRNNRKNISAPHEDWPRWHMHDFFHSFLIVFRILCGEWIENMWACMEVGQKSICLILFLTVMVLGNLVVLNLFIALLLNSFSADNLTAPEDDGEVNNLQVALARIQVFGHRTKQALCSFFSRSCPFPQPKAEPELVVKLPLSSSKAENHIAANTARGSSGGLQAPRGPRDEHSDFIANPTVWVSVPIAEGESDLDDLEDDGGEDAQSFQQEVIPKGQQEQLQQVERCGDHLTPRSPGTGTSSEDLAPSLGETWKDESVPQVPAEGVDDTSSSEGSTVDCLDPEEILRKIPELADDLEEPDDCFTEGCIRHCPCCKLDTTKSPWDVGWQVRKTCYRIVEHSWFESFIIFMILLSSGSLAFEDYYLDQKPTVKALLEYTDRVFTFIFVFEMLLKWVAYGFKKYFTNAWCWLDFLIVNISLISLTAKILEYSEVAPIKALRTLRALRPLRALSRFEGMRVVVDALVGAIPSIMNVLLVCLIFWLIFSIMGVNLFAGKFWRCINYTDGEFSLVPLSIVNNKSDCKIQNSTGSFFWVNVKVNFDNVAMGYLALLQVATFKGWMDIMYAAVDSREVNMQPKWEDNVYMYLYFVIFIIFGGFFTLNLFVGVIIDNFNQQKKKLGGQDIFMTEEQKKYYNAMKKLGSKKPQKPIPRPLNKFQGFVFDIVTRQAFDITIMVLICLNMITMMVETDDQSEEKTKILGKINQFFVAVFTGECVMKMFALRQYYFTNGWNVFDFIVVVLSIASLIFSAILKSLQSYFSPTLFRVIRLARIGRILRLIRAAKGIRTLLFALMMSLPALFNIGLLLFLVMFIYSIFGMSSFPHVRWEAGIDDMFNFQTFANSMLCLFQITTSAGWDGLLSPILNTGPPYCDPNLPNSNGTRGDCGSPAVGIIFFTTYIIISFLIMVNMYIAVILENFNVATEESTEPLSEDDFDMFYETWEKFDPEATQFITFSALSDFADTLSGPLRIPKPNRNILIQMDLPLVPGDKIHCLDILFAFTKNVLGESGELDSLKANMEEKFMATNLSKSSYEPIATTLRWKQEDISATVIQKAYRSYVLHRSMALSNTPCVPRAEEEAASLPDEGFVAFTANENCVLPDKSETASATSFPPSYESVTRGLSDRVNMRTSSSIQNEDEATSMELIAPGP
Description: Compound Profiling on NaV1.8—Human NaV1.8 Cell Line—SyncroPatch384PE Assay
Compounds were tested on recombinant human NaV1.8 stably transfected HELK cells using the SyncroPatch384PE system, an automated patch clamp device. Cells were cultured at 37° C./5% CO2 in DMEM medium supplemented with GlutaMAX I, NEAA 1%, FBS 10% and seeded in T175 flasks. Cells were cultured at 30° C. one day prior to recording sodium currents. On the day of the recordings, cells were detached with 0.05% Trypsin-EDTA, resuspended in serum free DMEM medium and placed into the SyncroPatch384PE 6° C. pre-cooled cell hotel and shaken at 200 rpm. Intracellular solution (IC) contained, in mM: 10, CsCl; 110, CsF; 20, EGTA; 10, HEPES. Extracellular solution (EC) contained, in mM: 140, NaCl; 4, KCl; 5, Glucose; 10, HEPES; 2, CaCl2; 1, MgCl2. Washing solution contained, in mM: 40, NMDG; 100, NaCl; 4, KCl; 10, Glucose; 10, HEPES; 5, CaCl2; 1, MgCl2.
Compounds were tested in quadruplicates in 0.1% DMSO and 0.030% Pluronic Acid. Compounds were diluted 1:3.33 in EC solution to create a 10-point concentration response curve, spanning a final concentration range from 10-0.0002 μM in the assay plate. Compounds with low nM potency were retested using a lower concentration range (1-0.00002 μM). Each plate contained tetracaine and another tool compound as positive controls. Up to 7 compounds were tested on one plate. 150 μM tetracaine and 0.1% DMSO were used as high and low controls, respectively.
Whole cell patch clamp recordings were conducted according to Nanion's standard procedure for SyncroPatch384PE®. Cells were held at a holding potential of −120 mV. A depolarization step to 10 mV for 30 ms was applied (P1 measurement), followed by a hyperpolarization step to −100 mV for 100 ms. An inactivation step at −40 mV for 10 sec was applied before stepping to −100 mV for 20 ms, followed by a step to 10 mV for 30 ms (P2 measurement) and then back to −100 mV for 30 ms. Sweep interval was 15 sec with a sampling rate of 10 kHz. Following establishment of the whole-cell configuration in EC, two washing steps with reference buffer were performed to stabilize the baseline. Compounds were then applied by the SynchroPatch into each well and the current was recorded for five minutes in EC, followed by application of tetracaine to achieve full block at the end of the experiment. The potency of the compounds was assessed on two read-outs, resting state block (P1 measurement) or inactivated state block (P2 measurement) to obtain IC50 values. Values were normalized to high (tetracaine) and low (DMSO) controls.

human NaV1.8 [2] = target: T1, human NaV1.8; assay: Activity of representative NaV1.8 inhibitors, determined using one or more of the methods of Example 122 (method not specified); design: expressed in transfected cells; host or cells: HEK293 / HEK-293, stably expressing; details: inhibition of the Nav1.8 channel; one or more of fluorescence, PatchXpress or IonFlux HT methods
Description: The ability of pyridazine carboxamide derivatives exemplified above to inhibit the NaV1.8 channel was determined using one or more of the methods described below.
A HEK293 cell line stably expressing the human NaV1.8 (hNaV1.8) ion channel with β1/β2 subunits was constructed. The cell line is suitable for IC50 determination in fluorescence and electrophysiological based assays. It is also suitable to form mechanism of action pharmacology studies in electrophysiological assays. HEK293 NaV1.8 cells are grown as adherent monolayers in DMEM/high glucose media, 10% fetal bovine serum, Na pyruvate (2 mM), Hepes (10 mM) with selection agents G418 (400 mg/L) and puromycin (0.5 mg/L) at 37 degrees C., 10% CO2.
Activity of Representative NaV1.8 Inhibitors
The ability of representative pyridazine carboxamide derivatives exemplified above to inhibit the Nav1.8 channel was determined using one or more of the methods described immediately hereinabove.

[3] = target: T2, recombinant human NaV1.8 stably transfected HEK cells (Homo sapiens, UniProt Q9Y5Y9); assay: Compound profiling on NaV1.8, human NaV1.8 cell line, SyncroPatch384PE automated patch clamp assay (Example 115, third set of compounds, Table 27); details: human NaV1.8 HEK cells, Table 27 (third set of compounds)
T2 construct: expressed in transfected cells; host or cells: HEK cells, stably transfected
T2 sequence (Q9Y5Y9 whole entry): as above
Outline: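 HEK cells, cultured at 30 °C the day before, recorded by automated whole-cell patch clamp (CsF intracellular, 140 mM Na+ external), holding −120 mV. 10-point curves at 10–0.0002 µM (or 1–0.00002 µM), 5 min exposure; IC50 for resting (P1) and inactivated-state block (P2, after 10 s at −40 mV), normalized to 150 µM tetracaine and 0.1% DMSO.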

[4] = inactivated state block (P2 measurement), read-out: P2 IC50
[5] = resting state block (P1 measurement), read-out: P1 IC50

SMILES	pIC50 (human NaV1.8 [1])	pIC50 (human NaV1.8 [2])	pIC50 [3, 4]	pIC50 [3, 5]
Cc1cc(F)ccc1Oc1nnc(C(F)(F)F)cc1C(=O)NC1CCC(=O)NC1 (stereo not shown) [Compound 11]	< 5.30	–	–	–
COc1cc(F)ccc1Oc1nnc(C(F)(F)F)cc1C(=O)N[C@H]1CCCNC1 [Compound 6, (S)-3-(4-Fluoro-2-methoxyphenoxy)-N-(piperidin-3-yl)-6-(trifluoromethyl)pyridazine-4-carboxamide]	< 5.30	–	–	–
CC(=O)N1CCC[C@@H](NC(=O)c2cc(C(F)(F)F)nnc2Oc2ccc(F)cc2C)C1 [Compound 4]	< 5.30	–	–	–
COc1cc(F)ccc1Oc1nnc(C(F)(F)F)cc1C(=O)N[C@H]1CCCN(C(=O)OC(C)(C)C)C1 [Compound 5, tert-Butyl (S)-3-(3-(4-fluoro-2-methoxyphenoxy)-6-(trifluoromethyl)pyridazine-4-carboxamido)piperidine-1-carboxylate]	< 5.30	–	–	–
COc1cc(F)ccc1Oc1nnc(C(F)(F)F)cc1C(=O)N[C@H]1CCCN(C(C)=O)C1 [Compound 8]	< 5.30	–	–	–
Cc1cc(F)ccc1Oc1nnc(C(F)(F)F)cc1C(=O)NC1CCCNC1=O (stereo not shown) [Compound 10]	< 5.30	–	–	–
COc1cc(F)ccc1Oc1nnc(C(F)(F)F)cc1C(=O)NC1CCCNC1=O (stereo not shown) [Compound 9]	< 5.30	–	–	–
COc1cc(C#N)ccc1Oc1nnc(C(F)(F)F)cc1C(=O)Nc1cccc(S(C)(=O)=O)c1 [Compound 75]	–	–	≥ 6.70	≥ 6.70
COc1cc(C#N)ccc1Oc1nnc(C(F)(F)F)cc1C(=O)Nc1cccc(C(N)=O)c1 [Compound 76]	–	–	≥ 6.70	≥ 6.70
COc1cc(F)ccc1Oc1nnc(C(F)(F)F)cc1C(=O)Nc1cccc(S(C)(=O)=O)n1 [Compound 15]	–	–	5.30 to 6.00	< 5.30
COc1cc(F)ccc1Oc1nnc(C(F)(F)F)cc1C(=O)NC1CCC(=O)NC1 (stereo not shown) [Compound 12]	< 5.30	–	–	–
COc1cc(NC(=O)c2cc(C(F)(F)F)nnc2Oc2ccc(F)cc2OC)ccn1 [Compound 33]	–	–	≥ 6.70	≥ 6.70
COc1cc(F)ccc1Oc1nnc(C(F)(F)F)cc1C(=O)Nc1cccc(S2(=O)=NCCC2)c1 (stereo not shown) [Compound 45]	–	–	6.30 to 6.70	6.30 to 6.70
CS(=O)(=O)c1cccc(NC(=O)c2cc(C(F)(F)F)nnc2Oc2cccc(OC(F)(F)F)c2)c1 [Compound 52]	–	–	< 5.30	< 5.30
COc1cc(F)ccc1Oc1nnc(C(F)(F)F)cc1C(=O)Nc1ccnc(S(N)(=O)=O)c1 [Compound 50]	–	–	≥ 6.70	≥ 6.70
COc1cc(F)ccc1Oc1nnc(C(F)(F)F)cc1C(=O)N[C@H]1CCCN(S(C)(=O)=O)C1 [Compound 7, (S)-3-(4-Fluoro-2-methoxyphenoxy)-N-(1-(methylsulfonyl)piperidin-3-yl)-6-(trifluoromethyl)pyridazine-4-carboxamide]	< 5.30	–	6.00 to 6.30	5.30 to 6.00
COc1ccc(Oc2nnc(C(F)(F)F)cc2C(=O)Nc2cccc(S(C)(=O)=O)c2)c(C)c1 [Compound 53]	–	–	≥ 6.70	≥ 6.70

Other lines, results leading:

pIC50 (human NaV1.8 [1])	pIC50 (human NaV1.8 [2])	pIC50 [3, 4]	pIC50 [3, 5]	SMILES
–	> 6.30	–	–	Cc1cc(F)ccc1Oc1nnc(C(F)(F)F)cc1C(=O)Nc1cccc(S(C)(=N)=O)c1 (stereo not shown) [Example 2, 3-(4-fluoro-2-methyl-phenoxy)-N-[3-(methylsulfonimidoyl)phenyl]-6-(trifluoromethyl)pyridazine-4-carboxamide]
–	> 6.30	–	–	COc1cc(F)ccc1Oc1nnc(C(F)(F)F)cc1C(=O)Nc1cccc(S(C)(=N)=O)c1 (stereo not shown) [Example 1, 3-(4-fluoro-2-methoxy-phenoxy)-N-[3-(methylsulfonimidoyl)phenyl]-6-(trifluoromethyl)pyridazine-4-carboxamide]
–	> 6.30	–	–	CS(=O)(=O)c1cccc(NC(=O)c2cc(Cl)nnc2Oc2ccc(OC(F)(F)F)cc2)c1 [Example 3, 6-chloro-N-(3-methylsulfonylphenyl)-3-[4-(trifluoromethoxy)phenoxy]pyridazine-4-carboxamide]
–	–	5.30 to 6.00	5.30 to 6.00	O=C(Nc1cc[nH]c(=O)c1)c1cc(C(F)(F)F)nnc1Oc1ccc(F)cc1Cl [Compound 89, 3-(2-Chloro-4-fluorophenoxy)-N-(2-oxo-1,2-dihydropyridin-4-yl)-6-(trifluoromethyl)pyridazine-4-carboxamide]
–	–	6.00 to 6.30	6.00 to 6.30	COc1ccc(F)cc1Oc1nnc(C(F)(F)F)cc1C(=O)Nc1cccc(C(N)=O)c1 [Compound 80]
–	–	6.30 to 6.70	6.00 to 6.30	Cc1cc(F)ccc1Oc1nnc(C(F)(F)F)cc1C(=O)Nc1cccc([S@](C)(=N)=O)c1 [Compound 102, (R)-3-(4-fluoro-2-methylphenoxy)-N-(3-(S-methylsulfonimidoyl)phenyl)-6-(trifluoromethyl)pyridazine-4-carboxamide]
–	–	6.00 to 6.30	6.30 to 6.70	NS(=O)(=O)c1cccc(NC(=O)c2cc(C(F)(F)F)nnc2Oc2ccc(F)cc2O)c1 [Compound 131, 3-(4-Fluoro-2-hydroxyphenoxy)-N-(3-sulfamoylphenyl)-6-(trifluoromethyl)pyridazine-4-carboxamide]
–	–	< 5.30	< 5.30	Cc1cc(F)ccc1Oc1nnc(C(F)(F)F)cc1C(=O)Nc1cc[nH]c(=O)c1C [Compound 91, 3-(4-Fluoro-2-methylphenoxy)-N-(3-methyl-2-oxo-1,2-dihydropyridin-4-yl)-6-(trifluoromethyl)pyridazine-4-carboxamide]
–	–	< 5.30	< 5.30	Cc1cc(F)ccc1Oc1nnc(C(F)(F)F)cc1C(=O)Nc1cccc(-c2cc[nH]n2)c1 [Compound 85]
–	–	5.30 to 6.00	< 5.30	CS(=O)(=O)c1cccc(NC(=O)c2cc(C(F)(F)F)nnc2Oc2ccc(F)cc2O)c1 [Compound 130, 3-(4-Fluoro-2-hydroxyphenoxy)-N-(3-(methylsulfonyl)phenyl)-6-(trifluoromethyl)pyridazine-4-carboxamide]
–	–	< 5.30	< 5.30	COc1cc(F)ccc1Oc1nnc(C(F)(F)F)cc1C(=O)Nc1cncc(C(N)=O)n1 [Compound 128, N-(6-Carbamoylpyrazin-2-yl)-3-(4-fluoro-2-methoxyphenoxy)-6-(trifluoromethyl)pyridazine-4-carboxamide]
